Counter-ions that a name gives are not always drawn. Starred links: 1 amine or outer side, 2 acyl side, 3 side chain; linkers in the order of their positions; H or OH if unused. Positions of bridges follow the written chain, without caps; N, C: chain ends. Non-standard residues stand in square brackets, D forms with d. Residues, ends and D or L forms follow the SMILES beside them. *: point of attachment. Me3N+(CH2)2O(CH2)2O(CH2)2CO = C[N+](C)(C)CCOCCOCCC(=O)*; CH2CH2OCH2CH2OCH2CH2NMe3+ = C[N+](C)(C)CCOCCOCC*; X21 = O=C([C@H](Cc1cncc(C(F)(F)F)c1)N[*:1])[*:2]; Trp(7-Me) = Cc1cccc2c(C[C@H](N)C(=O)O)c[nH]c12; 3Pal(5-Me) = Cc1cncc(C[C@H](N)C(=O)O)c1; Dab(NMeAc) = CC(=O)N(C)CC[C@H](N)C(=O)O; 2Nal = N[C@@H](Cc1ccc2ccccc2c1)C(=O)O; AEF = NCCOc1ccc(C[C@H](N)C(=O)O)cc1; 3Pal = N[C@@H](Cc1cccnc1)C(=O)O; Lys(Me) = CNCCCC[C@H](N)C(=O)O; Pen = CC(C)(S)[C@H](N)C(=O)O; Thp = NC1(C(=O)O)CCOCC1; X3 = C[N+](C)(C)CCCCC*; Aib = CC(C)(N)C(=O)O; Tfa = O=C(C(F)(F)F)*; Sar = CNCC(=O)O
Key:
[1] = Exposed Polar Surface Area (EPSA); assay type: physicochemical; settings: SFC on Chirex 3014 column; sample 1 mM DMSO stock; read-out: EPSA
Summary of the method: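 Polarity measured by SFC on a Chirex 3014 column (35 °C, 4 mL/min) with methanol/ammonium formate in CO2 as gradient eluent. Retention times were normalised to EPSA (Å^2) against eight reference compounds.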

IL-23R = biological target: T1, IL-23R (Homo sapiens, UniProt Q5VWK5); experiment: IL23R Reporter Assay; assay type: cell-based; settings: HEK293 cells containing IL-23R, IL-12RP1 and STAT-inducible firefly luciferase reporter; 10 ng/mL IL-23 (EC90); 5 h at 37° C.; read-out: IL23R Reporter Assay
T1 construct: host or cells: HEK293
T1 sequence (Q5VWK5 24-629): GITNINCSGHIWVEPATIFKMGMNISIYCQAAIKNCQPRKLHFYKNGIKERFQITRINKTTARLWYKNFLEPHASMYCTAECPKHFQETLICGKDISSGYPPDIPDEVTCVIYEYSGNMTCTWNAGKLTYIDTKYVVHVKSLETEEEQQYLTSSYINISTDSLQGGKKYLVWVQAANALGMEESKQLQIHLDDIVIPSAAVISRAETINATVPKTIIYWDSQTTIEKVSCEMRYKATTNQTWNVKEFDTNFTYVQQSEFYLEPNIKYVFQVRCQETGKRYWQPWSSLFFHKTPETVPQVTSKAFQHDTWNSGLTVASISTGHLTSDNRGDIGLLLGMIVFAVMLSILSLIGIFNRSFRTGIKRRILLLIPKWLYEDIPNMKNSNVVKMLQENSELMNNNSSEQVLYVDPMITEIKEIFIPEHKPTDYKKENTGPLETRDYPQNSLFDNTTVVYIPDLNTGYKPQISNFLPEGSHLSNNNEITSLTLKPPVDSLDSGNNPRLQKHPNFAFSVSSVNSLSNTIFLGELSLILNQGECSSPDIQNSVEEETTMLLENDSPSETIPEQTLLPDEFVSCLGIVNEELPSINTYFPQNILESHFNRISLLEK

Row | Compound | EPSA [1] [A^2] | IC50 (IL-23R) [nM]
1 | CC(=O)N(C)CCCC[C@@H]1NC(=O)[C@H](Cc2c[nH]c3c(C)cccc23)NC(=O)[C@H]([C@@H](C)O)NC(=O)[C@H](CC(=O)N(C)C)NC(=O)[C@@H](NC(=O)CCOCCOCC[N+](C)(C)C)C(C)(C)SSC(C)(C)[C@@H](C(=O)N[C@@H](Cc2ccc(OCCCCC[N+](C)(C)C)cc2)C(=O)N[C@@H](Cc2ccc3ccccc3c2)C(=O)NC(C)(C)C(=O)N[C@@H](CCCCN(C)C(C)=O)C(=O)N[C@@H](CC(N)=O)C(=O)N[C@@H](Cc2cccnc2)C(=O)N(C)CC(=O)N(C)C)NC1=O [compound 341, cPEG3aCO-Pen(3)-N(N(Me)2)-T-7MeW-K(NMeAc)-Pen(3)-TMAPF-2Nal-Aib-K(NMeAc)-N-3Pya-Sar-CON(Me)2] ({Me3N+(CH2)2O(CH2)2O(CH2)2CO}-[Pen]D(NMe2)T[Trp(7-Me)][Lys(Me)](Ac)[Pen]Y(X3)[2Nal][Aib][Lys(Me)](Ac)N[3Pal][Sar]-NMe2; disulfide 1-6) | 153 | 0.97
2 | CC(=O)N(C)CC[C@H](NC(=O)C1(NC(=O)[C@H](Cc2ccc3ccccc3c2)NC(=O)[C@H](Cc2ccc(OCCN)cc2)NC(=O)[C@H]2NC(=O)[C@H](CCC(=O)N(C)C)NC(=O)[C@H](Cc3c[nH]c4c(C)cccc34)NC(=O)[C@H]([C@@H](C)O)NC(=O)[C@H](CC(=O)N(C)C)NC(=O)[C@@H](NC(=O)CCOCCOCC[N+](C)(C)C)C(C)(C)SSC2(C)C)CCOCC1)C(=O)N[C@@H](CC(N)=O)C(=O)N[C@@H](Cc1cccnc1)C(=O)N(C)CC(=O)N(C)C [compound 159, cPEG3aCO-Pen(3)-N(N(Me)2)-T-7MeW-Q(N(Me)2)-Pen(3)-AEF-2Nal-THP-Dab(NMeAc)-N-3Pya-Sar-CON(Me)2] ({Me3N+(CH2)2O(CH2)2O(CH2)2CO}-[Pen]D(NMe2)T[Trp(7-Me)]E(NMe2)[Pen][AEF][2Nal][Thp][Dab(NMeAc)]N[3Pal][Sar]-NMe2; disulfide 1-6) | 149 | 1.8
3 | CC(=O)NC(COCCOCC[N+](C)(C)C)C(=O)N[C@@H]1C(=O)N[C@@H](CC(=O)N(C)C)C(=O)N[C@@H]([C@@H](C)O)C(=O)N[C@@H](Cc2c[nH]c3c(C)cccc23)C(=O)N[C@@H](CCCCN(C)C(C)=O)C(=O)N[C@H](C(=O)N[C@@H](Cc2ccc(OCCn3cc(CCCC[N+](C)(C)C)nn3)cc2)C(=O)N[C@@H](Cc2ccc3ccccc3c2)C(=O)NC2(C(=O)N[C@@H](CCCCN(C)C(C)=O)C(=O)N[C@@H](CC(N)=O)C(=O)N[C@@H](Cc3cccnc3)C(=O)N(C)CC(=O)N(C)C)CCOCC2)C(C)(C)SSC1(C)C (mixture of isomers) [compound 545, MeCO-APEG2Ser(RS)-Pen(3)-N(N(Me)2)-T-7MeW-K(NMeAc)-Pen(3)-Y(OTzlTMA4)-2Nal-THP-K(NMeAc)-N-3Pya-Sar-CON(Me)2] | 154 | 0.83
4 | CC(=O)NCCCC[C@@H]1NC(=O)[C@H](Cc2c[nH]c3c(C)cccc23)NC(=O)[C@H]([C@@H](C)O)NC(=O)[C@H](CC(N)=O)NC(=O)[C@@H](NC(=O)C(F)(F)F)C(C)(C)SSC(C)(C)[C@@H](C(=O)N[C@@H](Cc2ccc(OCCN)cc2)C(=O)N[C@@H](Cc2ccc3ccccc3c2)C(=O)NC2(C(=O)N[C@@H](CCCCNC(C)=O)C(=O)N[C@@H](CC(N)=O)C(=O)N[C@@H](Cc3cncc(C(F)(F)F)c3)C(=O)N(C)CC(N)=O)CCOCC2)NC1=O [compound 56] (Tfa-[Pen]NT[Trp(7-Me)]K(Ac)[Pen][AEF][2Nal][Thp]K(Ac)N[X21][Sar]-NH2; disulfide 1-6 (inferred)) | 158 | 5.7
5 | CC(=O)N[C@@H]1C(=O)N[C@@H](CC(=O)N(C)C)C(=O)N[C@@H]([C@@H](C)O)C(=O)N[C@@H](Cc2c[nH]c3c(C)cccc23)C(=O)N[C@@H](CCCCN(C)C(C)=O)C(=O)N[C@H](C(=O)N[C@@H](Cc2ccc(OCCOCCOCC[N+](C)(C)C)cc2)C(=O)N[C@@H](Cc2ccc3ccccc3c2)C(=O)NC2(C(=O)N[C@@H](CCCCN(C)C(C)=O)C(=O)N[C@@H](CC(N)=O)C(=O)N[C@@H](Cc3cccnc3)C(=O)N(C)CC(=O)N(C)C)CCOCC2)C(C)(C)SSC1(C)C [compound 183, MeCO-Pen(3)-N(N(Me)2)-T-7MeW-K(NMeAc)-Pen(3)-APEG3F-2Nal-THP-K(NMeAc)-N-3Pya-Sar-CON(Me)2] (Ac-[Pen]D(NMe2)T[Trp(7-Me)][Lys(Me)](Ac)[Pen]Y(CH2CH2OCH2CH2OCH2CH2NMe3+)[2Nal][Thp][Lys(Me)](Ac)N[3Pal][Sar]-NMe2; disulfide 1-6) | 133 | 1.8
6 | CC(=O)NCCCC[C@@H]1NC(=O)[C@H](Cc2c[nH]c3c(-c4cccc(NC(C)=O)c4)cccc23)NC(=O)[C@H]([C@@H](C)O)NC(=O)[C@H](CC(N)=O)NC(=O)[C@@H](NC(C)=O)C(C)(C)SSC(C)(C)[C@@H](C(=O)N[C@@H](Cc2ccc(OCCCCC[N+](C)(C)C)cc2)C(=O)N[C@@H](Cc2ccc3ccccc3c2)C(=O)NC2(C(=O)N[C@@H](CCCCNC(C)=O)C(=O)N[C@@H](CC(N)=O)C(=O)N[C@@H](Cc3cncc(C)c3)C(=O)N(C)CC(N)=O)CCOCC2)NC1=O [compound 503, MeCO-Pen(3)-N-T-7(3NAcPh)W-K(Ac)-Pen(3)-TMAPF-2Nal-THP-K(Ac)-N-5MePyridinAla-Sar-CONH2] | 169 | 8.4
7 | CC(=O)NCCCC[C@H](NC(=O)C1(NC(=O)[C@H](Cc2ccc3ccccc3c2)NC(=O)[C@H](Cc2ccc(OCCN)cc2)NC(=O)[C@H]2NC(=O)[C@H](CCCCN(C)C(C)=O)NC(=O)[C@H](Cc3c[nH]c4c(C)cccc34)NC(=O)[C@H]([C@@H](C)O)NC(=O)[C@H](CC(=O)N(C)C)NC(=O)[C@@H](NC(=O)CCOCCOCC[N+](C)(C)C)C(C)(C)SSC2(C)C)CCOCC1)C(=O)N[C@@H](CC(N)=O)C(=O)N[C@@H](Cc1cccnc1)C(=O)N(C)CC(N)=O [compound 149, cPEG3aCO-Pen(3)-N(N(Me)2)-T-7MeW-K(NMeAc)-Pen(3)-AEF-2Nal-THP-K(Ac)-N-3Pya-Sar-CONH2] ({Me3N+(CH2)2O(CH2)2O(CH2)2CO}-[Pen]D(NMe2)T[Trp(7-Me)][Lys(Me)](Ac)[Pen][AEF][2Nal][Thp]K(Ac)N[3Pal][Sar]-NH2; disulfide 1-6) | 157 | 2.1
8 | CC(=O)NCCCC[C@@H]1NC(=O)[C@H](Cc2c[nH]c3c(C)cccc23)NC(=O)[C@H]([C@@H](C)O)NC(=O)[C@H](CC(N)=O)NC(=O)[C@@H](NC(=O)[C@@H](CCCNC(=N)N)NC(=O)CCOCCOCC[N+](C)(C)C)C(C)(C)SSC(C)(C)[C@@H](C(=O)N[C@@H](Cc2ccc(OCCN)cc2)C(=O)N[C@@H](Cc2ccc3ccccc3c2)C(=O)NC2(C(=O)N[C@@H](CCC(=O)O)C(=O)N[C@@H](CC(N)=O)C(=O)N[C@@H](Cc3cncc(C)c3)C(=O)N(C)CC(N)=O)CCOCC2)NC1=O [compound 473, cPEG3aCO-r-Pen(3)-N-T-7MeW-K(Ac)-Pen(3)-AEF-2Nal-THP-E-N-5MePyridinAla-Sar-CONH2] ({Me3N+(CH2)2O(CH2)2O(CH2)2CO}-[dR][Pen]NT[Trp(7-Me)]K(Ac)[Pen][AEF][2Nal][Thp]EN[3Pal(5-Me)][Sar]-NH2; disulfide 2-7) | 202 | 12
